Assay: in vitro
Settings: human, hela cells, % viability

| SMILES | viability at 28.5 h, 10 µM |
| --- | --- |
| CC(O)(c1ccncc1)c1nccs1 (stereo not drawn) [CBK281504] | 90.1% |
| OCC1OC(n2cnc3c(S)ncnc32)C(O)C1O (stereo not drawn) [CBK012260] | 64.5% |
| Cc1ccc(S(=O)(=O)N(CC(O)CN2C(=O)NC(C)(C)C2=O)c2ccccc2[N+](=O)[O-])cc1 (stereo not drawn) [CBK263572] | 95.3% |
| Cc1cc(C)n(CC(=O)NCC(c2cccs2)N2CCOCC2)n1 (stereo not drawn) [CBK305620] | 102% |
| O=C(O)c1[nH]c2ccccc2c1C(c1ccsc1)c1c(C(=O)O)[nH]c2ccccc12 [CBK267811] | 103% |
| CC(=O)Nc1c[nH]nc1C1CCCN(c2cccc(F)c2C#N)C1 (stereo not drawn) [CBK306401] | 97.2% |
| CSc1ncc(C(=O)N2CCC(N3CCCC(CO)C3)CC2)c(=O)[nH]1 (stereo not drawn) [CBK307338] | 90.3% |
| Cc1c(Cl)cccc1S(=O)(=O)Nc1nc(CSc2ccccn2)ns1 [CBK200054] | 97.2% |
| O=c1[nH]c2ncc(-c3cccc(-c4ccccc4)c3)nc2n1Cc1ccccc1 [CBK064252] | 96.1% |
| O=C(O)CNC1=NC2(CCCCC2)Cc2ccccc21 [CBK287001] | 78.2% |
| COc1ccccc1-c1nccnc1OC(c1ccccc1)c1ccccc1 [CBK106813] | 93.8% |
| COc1ccc(Nc2nc(-c3cccnc3)cs2)c(OC)c1 [CBK126814] | 92.6% |
| Cc1cc(-c2nnc(SCC(=O)N3CCCc4ccccc43)o2)no1 [CBK268828] | 88% |
| O=C(O)C1CCCCC1C(=O)N1CCN(C(c2ccccc2)c2ccccc2)CC1 (stereo not drawn) [CBK265480] | 90.7% |
| COc1ccc(NC(=O)CC2Nc3cccc4cccc(c34)NC2=O)cc1 (stereo not drawn) [CBK267561] | 93.1% |
| O=C(Nc1ccc(C(=O)O)c(O)c1)c1ccc(Br)o1 [CBK270053] | 87% |
| O=C1CCCN1CCCNC(=O)N1CCCCC1CO (stereo not drawn) [CBK155985] | 91.8% |
| CC(C)c1ccc(-c2csc(Nc3cccc(C(=O)O)c3)n2)cc1 [CBK299880] | 104% |
| O=C(CCc1ccc(F)cc1)N1CCCC(c2cccc(Cc3ccccc3F)n2)C1 (stereo not drawn) [CBK286512] | 91.2% |
| Cn1cnc(S(=O)(=O)N2CCC(C(=O)NC(c3ccccn3)c3cccs3)CC2)c1 (stereo not drawn) [CBK060131] | 105% |
| Cn1nccc1CNCc1cc(Br)ccc1Cl [CBK305100] | 88.3% |
| O=S(=O)(c1cccs1)N1CCCN(Cc2nccs2)CC1 [CBK045172] | 119% |
| O=C(N/N=C/c1ccc(-c2ccc([N+](=O)[O-])cc2)o1)c1cccnc1 [CBK262287] | 92.3% |

| SMILES | viability at 28.5 h, 10 µM |
| --- | --- |
| CCn1ncc(S(=O)(=O)Nc2ccc3c(ccn3C)c2)c1C [CBK282730] | 102% |
| CS(=O)(=O)Nc1nccnc1OC1CCN(CCc2ccccn2)CC1 [CBK084286] | 109% |
| CCn1c(SCC(=O)N2CCC(C(N)=O)(N3CCCCC3)CC2)nnc1-c1ccccc1 [CBK266135] | 95.2% |
| CCCCN(C)c1nccnc1-c1cccc(O)c1 [CBK037652] | 99% |
| CCC(Oc1ccccc1C)C(=O)Nc1ccccc1C(=O)N(C)C (stereo not drawn) [CBK270144] | 88.4% |
| N#Cc1c(NC(=O)Cn2cnc3sc(-c4ccccc4)cc3c2=O)sc2c1CCC2 [CBK268053] | 95.2% |
| Cc1ccnc(NC(=O)c2ccccc2)c1 [CBK004031] | 90.6% |
| Cc1nn(C)cc1-c1cncn1CC(C)N1CCCCC1 (stereo not drawn) [CBK281781] | 92.1% |
| Cn1c(CCN2CCOCC2)nc2cc(NC(=O)c3cccs3)ccc21 [CBK268415] | 97.9% |
| CC(NC(=O)N(C)Cc1ccc2ccccc2n1)c1nncn1C(C)C (stereo not drawn) [CBK307197] | 92.9% |
| Cc1nn(C)cc1CN1CCN(C(=S)NCCc2ccccc2)CC1 [CBK267069] | 98.4% |
| Cc1cccc(OCCNC(=O)CN2CCCC2Cn2cncn2)c1 (stereo not drawn) [CBK305345] | 102% |
| COc1ccc(Oc2nccnc2N2CCN(Cc3ccc(C(F)(F)F)cc3)CC2)cc1OC [CBK083044T] | 102% |
| Cc1cc(O)n2nc(CC(=O)NCCCn3ccnc3C(C)C)nc2n1 [CBK306876] | 91.5% |
| Cc1ccc(OCc2ccc(Cl)nc2)c(Br)c1 [CBK002842] | 75.8% |
| Cc1cc(Cl)c(S(=O)(=O)Nc2cccc(Br)c2)cc1OCC(N)=O [CBK266535] | 100% |
| CCc1cc(C(=O)Nc2nn(C)c3cccc(N4CCOCC4)c23)cs1 [CBK307419] | 110% |
| Cc1ccc(CNS(=O)(=O)c2ccc3ccccc3c2)cc1 [CBK266501] | 102% |
| O=C(CSCc1ccccc1)Nc1ccc2c3c(cccc13)CC2 [CBK264916] | 107% |
| CCC(O)Cn1nc(CCSC)nc1-c1cn(C)c(=O)[nH]c1=O (stereo not drawn) [CBK306588] | 83.5% |
| O=C(O)CCn1c(-c2ccc(F)cc2)cc2cccnc21 [CBK282583] | 84.4% |
| COc1ccccc1-c1cc(C(F)F)nc(S)c1C#N [CBK288358] | 88.8% |
| CC(=O)Nc1ccc(OC(=O)c2ccc(Br)o2)cc1 [CBK293917] | 112% |

| SMILES | viability at 28.5 h, 10 µM |
| --- | --- |
| CC1=C[C@@H](CNC(=O)c2cccnc2)[C@H](C(C)C)C[C@H]1CC(=O)N1CCOCC1 [CBK289053] | 92.4% |
| O=C(Cc1ncc(C(F)(F)F)cc1Cl)NO [CBK007437] | 85% |
| Cc1nn(S(=O)(=O)c2cccc3nsnc23)c(C)c1Cl [CBK270323] | 92.6% |
| CC1CN(c2ccccc2Br)NC1=O (stereo not drawn) [CBK026500] | 96.7% |
| CN1CCN(Cc2nc3c(c(=O)n(C)c(=O)n3C)n2Cc2c(F)cccc2Cl)CC1 [CBK269179] | 98.3% |
| CSc1cc(-c2ccc(Cl)cc2)c(C(=O)O)s1 [CBK126740] | 80.3% |
| CCOc1ccc(-c2c3c(c(-c4ccccc4)n2-c2ccc(N)cc2)C(=O)c2ccccc2C3=O)cc1 [CBK262685] | 40% |
| O=C(Nc1nn[nH]n1)C1CCCCC1 [CBK027955] | 112% |
| Cc1cccc(OCC(=O)NC(=S)Nc2ccccc2N2CCCCC2)c1C [CBK266298] | 105% |
| O=C(O)COCC(=O)N1CCN(CCc2ccccc2)CC1 [CBK270298] | 107% |
| CCn1c(C)cc(C(=O)N2CCN(c3nccc(OC)n3)CC2)c1C [CBK305791] | 95.5% |
| CCN(CC)C(=O)c1c(NS(=O)(=O)c2ccc(C)cc2)sc2c1CCCC2 [CBK028627] | 111% |
| CC(=O)N1CCC[C@H]2NC(=O)CNC(=O)C3(C/C=C/C[C@H]21)CCN(C(=O)c1cc(C)no1)CC3 [CBK292176] | 104% |
| COc1cccc(CN(C)C2CCN(C)CC2)c1OC [CBK261532] | 97.7% |
| CCCCCC(=O)N[C@H]1CCC[C@H]1C(=O)O [CBK007807] | 118% |
| COc1cccc(CCOc2cncc(Cl)n2)c1 [CBK113556] | 87.3% |
| O=C1Nc2ccc(S(=O)(=O)NCCCO)c3cccc1c23 [CBK262033] | 85.9% |
| Cc1[nH]c(=O)[nH]c(=O)c1C(=O)Nc1ccccc1 [CBK116181] | 96.4% |
| COc1ccc2c(c1)cc(C)c1n[nH]c(=O)n12 [CBK283766] | 76.7% |
| COc1ccccc1NS(=O)(=O)c1ccc2c(c1)C1C=CCC1C(c1ccc(C(=O)O)cc1)N2 (stereo not drawn) [CBK268903] | 101% |
| N#Cc1ccc(CNC(=O)c2ccc(-c3ccc(OC(F)(F)F)cc3)nc2)cc1 [CBK156249] | 87.2% |
| COc1cc(CNc2nccnc2-c2ccc(F)cc2)cc(OC)c1OC [CBK037328] | 90.3% |
| O=C(Nc1nc(-c2ccncc2)cs1)c1sc2ccccc2c1Cl [CBK287562] | 92.1% |

| SMILES | viability at 28.5 h, 10 µM |
| --- | --- |
| COc1cc(OC)nc(C(NC(=O)C2CCN(C(=O)c3ccno3)CC2)c2ccc(Cl)cc2)n1 (stereo not drawn) [CBK060169] | 115% |
| CN1C(=O)C(CCNc2ccccc2)S/C1=N/C1CC2C=CC1C2 (stereo not drawn) [CBK073812] | 114% |
| CCN1CCN(C(=O)CCn2c(C(F)F)cc3cccnc32)CC1 [CBK285026] | 112% |
| CCNC(=O)Nc1ccccc1C(=O)NC1CCCCC1 [CBK175266] | 89.6% |
| CCCc1nnc(SC(C)C(=O)N2CCCc3ccccc32)[nH]1 (stereo not drawn) [CBK306480] | 90% |
| CC(C)N1CCOC[C@H]1c1nc(-c2ccc(S(C)(=O)=O)cc2)c[nH]1 [CBK289301] | 91.2% |
| O=C(C1CC1)N1CCc2cc(-c3cn4ccccc4n3)ccc21 [CBK285193] | 99.2% |
| CCOC(=O)c1cccc(-n2ncc(CN(C)C)n2)c1 [CBK112866] | 91.4% |
| CS(=O)(=O)NC1CCN(c2nc(C(=O)O)nc3ccccc23)CC1 [CBK304316N] | 105% |
| CN1C(=O)/C(=C2\SC(=S)N(C(Cc3ccccc3)C(=O)O)C2=O)c2ccccc21 (stereo not drawn) [CBK263507] | 99.6% |
| Cc1ccccc1/N=C1/NC(=O)/C(=C/c2ccc([N+](=O)[O-])o2)S1 [CBK094584] | 96.6% |
| O=C(c1cccs1)N1CCN(S(=O)(=O)c2cccc([N+](=O)[O-])c2)CC1 [CBK266184] | 94.7% |
| COc1ccc(CC(=O)Nc2ccc(S(=O)(=O)NC(C)C)cc2)cc1 [CBK267833] | 93.2% |
| O=C(O)c1cccc(N2C(=O)C3C(C2=O)C2(c4ccccc4)C(=O)C3(c3ccccc3)C(c3ccccc3)=C2c2ccccc2)c1 (stereo not drawn) [CBK262439] | 84.8% |
| CSCCCNC(=O)c1ccccc1Nc1cccc(C(F)(F)F)c1 [CBK149551] | 71.3% |
| CCn1cncc1CN1CCCC(O)(c2ccc(F)cc2)CC1 (stereo not drawn) [CBK284838] | 90.6% |
| Cc1nn(C)cc1C(=O)NC(Cc1ccsc1)c1cccnc1 (stereo not drawn) [CBK285392] | 109% |
| CNC(=O)CN(CCO)Cc1cc(Br)ccc1F [CBK304941] | 108% |
| Cc1cc2cc(CNCCCN3CCCC3=O)c(=O)[nH]c2cc1C [CBK282296] | 81.4% |
| COc1c2c(nc3ccccc13)OC(C(C)(O)CO)C2 (stereo not drawn) [CBK261506] | 87.6% |

Same assay, conditions: human, hela cells, % viability, bulk resorufin, single well

| SMILES | viability at 28.5 h, 10 µM |
| --- | --- |
| C=CCN1C(=O)NC(=O)C(CCc2ccccn2)(CCc2ccccn2)C1=O [CBK268761] | 104% |

Source: article PMC12040169 (PLOS Biology, 2025)
